# Source: patent US12336986B2, “Treatment and prevention of ocular neurodegenerative disorder” (The Jackson Laboratory, priority 2015, dated 2025)
# “Also recorded” adds a separate entry of the source.
# Tests used:
# [1] = test system: DBA/2J (D2) mice; test: Pattern electroretinography (PERG) in D2 mice; type: in vivo, mouse; details: for visual function, PERG amplitude: D2 mice
# Procedure: PERG was recorded subcutaneously from the snout as previously reported. Briefly: patterned stimuli (gratings of 0.05 cycles/degree, 100% contrast) generated on LED panels were presented at each eye separately with slight different frequencies around 1 Hz. Waveforms were retrieved using an asynchronous averaging method (Chou et al., Invest Ophthalmol Vis Sci 55, 2469-2475, 2014).
# Mice were anaesthetized using ketamine/xylazine (Savinova et al., BMC Genet 2, 12, 2001) and body temperature maintained at 37° C. on a feedback-controlled heated stage monitored by rectal thermometer.
# [2] = test system: D2 retinas; test: Retinal NFL and IPL thinning (Nissl staining) in D2 mice; type: in vivo, mouse; details: NAM or pyruvate in drinking water
# Procedure: For Nissl staining, frozen sections were warmed to room temperature, placed in 1:1 alcohol:chloroform ON, and rehydrated through serial alcohol gradient. Slides were washed once in distilled water and stained for 15 mins in 0.1% cresyl violet in distilled water before being differentiated in 95% alcohol, dehydrated in 100% alcohol and cleared in xylene. Slides were prepared as above. Nissl stained retinal sections were imaged using a Nikon Eclipse E200.
# [3] = test system: SNAP-25; test: Synapse loss (SNAP-25 staining) in D2 retinas; type: in vivo, mouse; details: D2 mice, NAM 550 mg/kg/day
# Procedure: (§1) For immunofluorescence staining, mice were euthanized by cervical dislocation, their eyes enucleated and placed in 4% PFA ON. Retinas were dissected and flat-mounted onto slides, permeabilized with 0.1% Triton-X for 15 mins, blocked with 2% BSA in PBS and stained ON at RT in primary antibody (see below for list of antibodies).
# (§2) After primary antibody incubation, retinas were washed 5 times in PBS, stained for 4 hrs at RT with secondary antibody. Slides were then washed a further 5 times with PBS, stained with DAPI for 15 mins, mounted with fluoromount, coverslipped and sealed with nail-polish.
# (§3) For retinal sections, eyes were cryoprotected in 30% sucrose ON, frozen in OCT and cryosectioned at 18 μm. Slides were warmed to room temperature and the procedure above was followed. Retinas were imaged on a Zeiss AxioObserver for low resolution counts. Retinal sections were imaged on a Leica SP8 far higher resolution images.
# [4] = test system: HIF-1α; test: HIF-1α induction (immunostaining, RNA-seq) in D2 retinas; type: in vivo, mouse; details: D2 mice, early glaucoma, NAM 550 mg/kg/day
# Procedure: as §1, §2, §3
# [5] = test system: ganglion cell layer cells (GCL cells); test: Whole retina explant culture (axotomy culture model), DAPI nuclei; type: cell-based, mouse
# From the text: Mice were euthanized, eyes enucleated and placed immediately into ice-cold HBSS. Retinas were dissected from the eyes in HBSS on ice, flat-mounted with the ganglion cell layer up on a cell culture insert (Millipore), and submerged in tissue culture media containing Neurobasal-A, 1% penicillin-streptomycin (10000 U/mL), 1% glutamine (100×), 1% N-2 (100×) and 1% B-27 (50×) (all ThermoFisher Scientific).
# For drug treated retinas tissue culture media was made as above and supplemented with one of the following compounds (all Sigma unless otherwise): β-NAD, NAM (PanReac AppliChem), β-NMN. Retinas were incubated in 6-well plates at 37° C. and 4% CO2 for 5 days before being fixed in 4% PFA and stained with DAPI. (For untreated “Day 0” controls, retinas were dissected and placed straight into 4% PFA.) Retinas were imaged on a Zeiss AxioObserver.
# [6] = test system: C57BL/6J (B6) mice; test: Soluble murine TNFα intravitreal injection model of RGC death; type: in vivo, mouse; details: NAM 550 mg/kg/day, 12-week post-TNFα administration
# Procedure: To induce delayed retinal ganglion cell degeneration, soluble murine TNFα (1 ng/μL) was intravitrally injected as previously described (Nakazawa et al., J Neurosci 26, 12633-12641, 2006). […] Mice we sacrificed at 12-week and RGC counts performed.
# [7] = axotomized retinas in culture, 5 days
compound,measurement,setting,value
"NC(=O)c1cccnc1 [NAM, nicotinamide]",PERG amplitude,"[1]; D2 Wld^S mice, NAM 550 mg/kg/day",additional recovery of PERG amplitude
same,"visual function, PERG amplitude","[1]; NAM^Hi 2,000 mg/kg/day",protect
same,"visual function, PERG amplitude",[1]; NAM^Lo 550 mg/kg/day or pyruvate 500 mg/kg/day,restored; also recorded: protect PERG even in aged mice
same,retinal NFL and IPL thinning (Nissl),[2],prevented; also recorded: protects
same,synapse loss in early glaucoma (SNAP-25 staining),[3],protected against early synapse loss; also recorded: prevents synapse loss
same,HIF-1α upregulation / transcriptional induction,[4],limited; also recorded: lessens upregulation
same,nuclear diameter shrinkage (DAPI-labeled nuclei),"[5]; axotomized D2 retinas in culture, 5 days post-axotomy, NAM 100 mM and 500 mM","most robust protection against nuclear shrinkage; also recorded: protects against cell shrinkage; also recorded: indistinguishable from uninjured, baseline controls"
same,ganglion cell layer cell death / cell density,[5]; [7],attractive dose-response effect
same,protective effect in retina tissue culture,[5]; [7],robustly protected
same,loss of PERG amplitude in TNFα injected eyes,[6],protected against; also recorded: prevents
same,soma loss / cell loss in TNFα injected eyes,[6],protected against; also recorded: prevents
